Where a SMILES comes first, the peptide text is derived from it.
Legend:
ENL [1] = biological target: T1, ENL (Homo sapiens, UniProt Q03111); assay: Solution competitive SPR assay of peptides, ENL-DOT1L interaction; type: binding; details: read-out: IC50 against ENL (block PPI DOT1L/ENL)
T1 construct: against AF9(497-568) and ENL (489-559) proteins running different tested concentrations over CM5 chip; MBP (pMSCG9-LIC vector); made in house; host or cells: Escherichia coli BL21 (DE3)
T1 sequence (Q03111 489-559): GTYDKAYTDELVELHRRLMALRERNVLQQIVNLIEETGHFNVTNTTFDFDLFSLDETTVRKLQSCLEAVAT
Protocol: (§1) Solution competitive SPR based assay was performed to determine the IC50 values of DOT1L peptides. […] Response units (RU) were measured at 15 seconds in the dissociation phase and the specific binding was calculated by subtracting the control surface (Fcl) signal from the surfaces with immobilized Mocr-DOT1L. IC50 values were determined by non-linear least squares analysis using Graph Pad Prism 5.0 software.

GB1-AF9 = biological target: T2, GB1-AF9 (Homo sapiens, UniProt P42568); assay: FP competitive binding, displacement of Flu-DOT1L from GB1-AF9; details: read-out: IC50, competition with DOT1L 10-mer fluorescein-labeled peptide for AF9
T2 construct: the recombinant GB1-AF9 protein (residues 497-568); made in house; host or cells: Escherichia coli BL21 (DE3)
T2 sequence (P42568 497-568): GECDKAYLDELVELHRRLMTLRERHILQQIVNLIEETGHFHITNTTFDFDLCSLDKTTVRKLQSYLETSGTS
Protocol: AF4 (749-775) protein and several peptides (AF4 14 mer, un-labeled and biotin-labeled DOT1L 10 mer peptide) were tested for their ability to displace the Flu-DOT1L from GB1-AF9 protein. The dose-dependent binding experiments were carried out in 96-well plates with serial dilutions of tested protein or peptides, GB1-AF9 protein (500 nM) and Flu-DOT1L (10 nM) in the same assay buffer and final volume of 125 μL. The polarization values were measured after 3 h incubation. Negative controls containing GB1-AF9 protein and probe (equivalent to 0% inhibition), and positive controls containing only free Flu-DOT1L probe (equivalent to 100% inhibition), were included on each assay plate. IC50 values were determined by nonlinear regression fitting of the competition curves (GraphPad Prism 5.0).

AF9 [2] = biological target: T3, AF9 (Homo sapiens, UniProt P42568); assay: Solution competitive SPR assay of peptides, AF9-DOT1L interaction; type: binding; set-up: against AF9(497-568) and ENL (489-559) proteins running different tested concentrations over CM5 chip; GB1 (pGB1-LIC vector); made in house; host or cells: Escherichia coli BL21 (DE3); details: read-out: IC50 against AF9 (block PPI DOT1L/AF9)
T3 sequence (P42568 497-568): T2 sequence (P42568 497-568)
Protocol: as §1

AF9 [3] = biological target: T4, AF9 (Homo sapiens, UniProt P42568); assay: Saturation Transfer Difference (STD) NMR; type: binding
T4 sequence (P42568 1-568): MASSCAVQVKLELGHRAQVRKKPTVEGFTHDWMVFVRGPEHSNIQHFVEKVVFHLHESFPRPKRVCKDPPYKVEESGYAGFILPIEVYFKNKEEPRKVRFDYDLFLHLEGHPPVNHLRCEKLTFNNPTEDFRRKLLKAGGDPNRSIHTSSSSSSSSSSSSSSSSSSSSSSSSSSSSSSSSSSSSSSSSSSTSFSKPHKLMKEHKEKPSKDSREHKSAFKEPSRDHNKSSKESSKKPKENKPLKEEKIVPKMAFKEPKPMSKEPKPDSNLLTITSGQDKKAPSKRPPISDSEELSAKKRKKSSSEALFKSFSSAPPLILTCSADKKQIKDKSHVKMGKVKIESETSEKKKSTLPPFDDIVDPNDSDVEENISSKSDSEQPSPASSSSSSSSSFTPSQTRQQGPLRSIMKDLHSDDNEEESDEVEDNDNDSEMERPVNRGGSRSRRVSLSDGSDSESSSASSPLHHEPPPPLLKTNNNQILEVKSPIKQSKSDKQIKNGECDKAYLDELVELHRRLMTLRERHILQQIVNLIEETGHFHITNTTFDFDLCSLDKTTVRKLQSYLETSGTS
Protocol: C) Globally fitted concentration series of 38 (100, 50, 25, 12.5 and 6.25 μM) binding to immobilized AF9 using OctetRed System (see Example 12).
To provide further validation of the hit selection in addition to the biochemical assays Saturation Transfer Difference (STD), NMR spectroscopy was used. NMR spectroscopy has been successfully utilized to detect and characterize the direct binding of small-molecule compounds to large biomolecules. This technique is also allowing characterization of the binding interactions and maps the ligand-protein contacts in the bound state, delineating which chemical moieties of the ligand molecule are key for molecular recognition by the protein (group epitope mapping, FIG. 20A). […] The direct binding of 38 was also confirmed with ThermoFluor biophysical binding assay. ThermoFluor exploits a well-known biophysical phenomenon where small changes in the intrinsic melting temperature of proteins in the presence of ligands are related to the equilibrium-binding constant. Compounds that interact with the native form of the protein will shift the equilibrium to the left, increasing the Tm, the temperature at which half the protein is unfolded. In the presence of compound 38, the Tm of MBP-AF9 protein increases in a dose-dependent manner, giving ΔTm of 1.2 degree in […] (FIG. 20B).

ENL [4] = biological target: T1, ENL; assay: SPR competitive binding assay of small molecules, ENL; details: SPR competitive based assay; read-out: ENL IC50 ± SD
Source text: (§2) To further validate the binding of the confirmed compounds and identify potential promiscuous inhibitors, several secondary assays have been developed to support hit confirmation and the hit-to-probe optimization process. In order to determine that the compounds bind effectively to the target and disrupt protein-protein interaction, a SPR competitive binding assay was used. This assay uses a platform that differs from the FP-based assay where DOT1L recombinant protein (residues […]) is immobilized on a CM5 chip, allowing for testing of the inhibitors for their ability to disrupt AF9-DOT1L protein-protein interactions.
This class of compounds was also tested for their binding against ENL protein, which is highly homologous with AF9.

[5] = Microsomal stability in mouse liver microsome; type: in vitro ADME; details: with NADPH
Protocol: For optimization of this class of inhibitors besides testing their binding affinity, the physico-chemical properties and microsomal stability will be tested in order to obtain improvement at multiple levels, as necessary for fully optimized compounds. To obtain initial information about the stability of this chemical class of compounds, compounds 42 and 48 have been tested in microsomal stability using mouse liver microsome. […] If their structure is analyzed, the major difference between these two compounds is the R2 substituent, furan vs. thiophen.

AF9 [6] = biological target: T3, AF9; assay: SPR competitive binding assay of small molecules, AF9-DOT1L; set-up: against AF9(497-568) and ENL (489-559) proteins running different tested concentrations over CM5 chip; GB1 (pGB1-LIC vector); made in house; host or cells: Escherichia coli BL21 (DE3); details: SPR competitive based assay; read-out: AF9 IC50 ± SD
Source text: Several secondary assays have already been developed to support hit confirmation and the hit-to-probe optimization process. The established and optimized SPR-based competitive assay utilizing DOT1L protein (826-1095) immobilized on the CM5 sensor chip was used as a secondary counter screen assay to validate binding of compounds to AF9. […] Both assays gave similar IC50 values.
as §2

MBP-ENL (489-559) = biological target: T5, MBP-ENL (489-559) (Homo sapiens, UniProt Q03111); assay: Isothermal titration calorimetry with MBP-ENL; type: binding; details: ITC, MBP-tagged ENL, 1:1 stoichiometry; read-out: KD to ENL protein
T5 construct: MBP-ENL (489-559) was dialysed extensively; made in house; host or cells: Escherichia coli BL21 (DE3)
T5 sequence (Q03111 489-559): T1 sequence (Q03111 489-559)
Protocol: Isothermal titration calorimetry—ITC was carried out using a Nano-ITC Micro Calorimeter (TA Instruments) at 20° C. MBP-ENL (489-559) was dialysed extensively against 50 mM Na2HPO4, (pH 7.5) and 100 mM NaCl, and 80 μM was used for titration studies of DOT1L 16-mer and 10-mer peptides, and 110 μM for DOT1L 7-mer titration. Tested peptides dissolved in the same buffer at 400 μM (DOT1L 16-mer and 10-mer) or 500 μM (DOT1L 7-mer) were tested by injecting 2 μl aliquots into the protein sample, at time intervals of […], to ensure that the titration peak returned to the baseline. The ITC data were analyzed by NanoAnalyze software package using a one site-binding model.

H3K79 methylation = assay: Global H3K79 methylation in MLL-AF9 transformed cells; type: cell-based, mouse; details: 6 days treatment of MLL-AF9 transformed cells
Source text: FIG. 23 presents cell growth curves of A) MLL-AF9 and B) Hoxa9/Meis1 transformed mouse cells and C) adult LSKs after treatment with 38. D) H3K79 methylation after 6 days treatment with 38 and EPZ004777 DOT1L inhibitor (see, e.g., Daigle, et al., Cancer Cell 20, 53-65 (2011)).
This example involves the assessment of cellular effects of compound 38. […] Compound 38 inhibited growth of MLL-AF9 cells in a dose-dependent manner (FIG. 23A), with cell growth inhibition starting after 4 days of treatment. […] The hypothesis predicts that compounds that can block the DOT1L recruitment, but not its catalytic activity, will not affect normal hematopoiesis, as well as the global level of H3K79 methylation. To test this hypothesis, the toxicity of compound 38 was tested on purified LSK (lin-sca-1+ckit+) progenitors from adult wild type mice (FIG. 23C).

DOT1L (826-1095) = biological target: T6, DOT1L (826-1095) (Homo sapiens, UniProt Q8TEK3); assay: SPR binding of ENL fragments to immobilized Mocr-DOT1L (826-1095)
T6 construct: made in house; host or cells: Escherichia coli BL21 (DE3)
T6 sequence (Q8TEK3 826-1095): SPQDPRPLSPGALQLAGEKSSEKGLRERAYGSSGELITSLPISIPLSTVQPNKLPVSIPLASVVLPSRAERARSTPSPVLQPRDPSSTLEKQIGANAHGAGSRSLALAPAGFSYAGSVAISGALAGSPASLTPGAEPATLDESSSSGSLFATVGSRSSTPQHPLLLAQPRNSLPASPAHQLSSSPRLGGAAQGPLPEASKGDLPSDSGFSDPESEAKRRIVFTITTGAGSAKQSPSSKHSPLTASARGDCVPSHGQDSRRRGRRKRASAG
Protocol: FIG. 7 pertains to analyzing the C-terminal domain in ENL protein and its binding to DOT1L. A. Alignment of ENL and AF9 C-terminal domain. The predicted α-helices are marked with Helix 1 and Helix 2 and conserved residues are presented in grey. […] The kon, koff and Kd were calculated by simultaneous non-linear regression using 1:1 binding model and BIAevaluation 3.1 software. The experimental data are shown in black while the global fit analyses are shown in grey.
Surface Plasmon Resonance (SPR) binding studies—All SPR based experiments were performed on a BIAcore 2000 (BIAcore, GE Healthcare) instrument. Different tested DOT1L recombinant proteins were immobilized on a CM5 sensor chip by standard EDC/NHS coupling chemistry followed by ethanolamine deactivation of the surfaces. For immobilization of full length Flag-DOT1L protein, anti-Flag antibody (Sigma, Anti-FLAG M2) was immobilized on CM5 chip by the same amine coupling chemistry. HEK293 whole cells lysate with overexpressed Flag-DOT1L at 2.4 μg/l total protein concentration was injected over the Flag antibody surface, followed by injecting of AF9 and ENL in different concentrations. […] Binding parameters, kon, koff and Kd were calculated by simultaneous non-linear regression using BIAEvaluation software.

## CC[C@H](C)[C@H](NC(=O)[C@H](CCCCN)NC(=O)[C@@H](NC(=O)[C@H](CCSC)NC(=O)[C@H](CC(C)C)NC(C)=O)C(C)C)C(=O)N[C@H](C(=O)N[C@@H](CC(C)C)C(=O)N[C@@H](CC(=O)O)C(=O)N[C@@H](CC(C)C)C(=O)N[C@@H](CC(C)C)C(=O)N[C@@H](CO)C(=O)N[C@@H](CCCNC(=N)N)C(=O)N[C@H](C(=O)N1CCC[C@H]1C(N)=O)[C@@H](C)CC)[C@@H](C)O [AF4 14 mer, reference compound] (Ac-LMVKITLDLLSRIP-NH2)
ENL [1]
  IC50: 0.43 µM
GB1-AF9
  IC50: 0.28 µM
AF9 [2]
  IC50: 0.2 µM

## COc1cccc(Nc2nc(N3CCOCC3)c3c(n2)N(C)NC3)c1 [Compound 36]
AF9 [3]
  STD effects (direct binding to AF9): strong STD effects

## CCCc1ccc(S(=O)(=O)N2c3ccccc3NC3=C(C(=O)CCC3)C2c2ccco2)cc1 (stereo not drawn) [Compound 42]
ENL [4]
  IC50: 58.1 ± 12 µM
[5]
  half time in mouse liver microsome: 2 min
AF9 [6]
  IC50: 47.1 ± 2.3 µM

## CCc1ccc(S(=O)(=O)N2c3ccccc3NC3=C(C(=O)CCC3)C2c2cccs2)cc1 (stereo not drawn) [Compound 48]
ENL [4]
  IC50: 19.7 ± 4 µM
[5]
  half time in mouse liver microsome: > 60 min
AF9 [6]
  IC50: 24.8 ± 1.3 µM

## CC[C@H](C)[C@H](NC(=O)[C@@H]1CCCN1C(=O)[C@H](CC(C)C)NC(C)=O)C(=O)N[C@@H](CO)C(=O)N[C@H](C(=O)N1CCC[C@H]1C(=O)N[C@@H](CC(C)C)C(N)=O)[C@@H](C)CC [DOT1L 7 mer, Ac-LPISIPL-NH2] (Ac-LPISIPL-NH2)
MBP-ENL (489-559)
  Kd: 3.4 µM

## CC(C)N(CCCNC(=O)Nc1ccc(C(C)(C)C)cc1)C[C@H]1O[C@@H](n2ccc3c(N)ncnc32)[C@H](O)[C@@H]1O [EPZ004777, reference compound]
H3K79 methylation
  global H3K79 methylation level: decreased global level of H3K79 methylation

## ENL H1: recombinant fragment of ENL protein corresponding to predicted helix 1 (GTYDKAYTDELVELHRRLMALRERNVLQQIVNLIEETGHFNVTNTTFDFDLFSLDE)
DOT1L (826-1095)
  Kd: 2.8 µM

## ENL H2: recombinant fragment of ENL protein corresponding to predicted helix 2 (EETGHFNVTNTTFDFDLFSLDETTVRKLQSCLEAVAT)
DOT1L (826-1095)
  Kd: 14.6 µM

## recombinant AF4 protein: AF4 recombinant protein (749-775 residues) (LSPLRDTPPPQSLMVKITLDLLSRIPQ)
GB1-AF9
  IC50: 0.56 µM
